The values that follow come from US20090093454A1, “Chemical Compounds” (priority 2005, published 2009).

The subject of this experiment is HIV-1. In words: HIV infectivity assay (Table 2, strain not given). The class given is cell-based. To be noted: Human immunodeficiency virus 1, read-out: Activity Level. A digest of the protocol:
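HOS cells expressing hCXCR4/hCCR5/hCD4 with HIV-LTR-luciferase, pre-treated 1 h with compound at 37 °C, then infected with HIV-1 Ba-L or IIIB (~2 million RLU/well) for 96 h. Infection read by Steady-Glo luciferase; cytotoxicity in uninfected cultures by CellTiter-Glo.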

As for `CN1CCN(c2cccc3nc(CN4CCC[C@H]5CCCc6cccnc6[C@H]54)cn23)CC1` [Example 124, (4aR,11bS)-1-{[5-(4-methyl-1-piperazinyl)imidazo[1,2-a]pyridin-2-yl]methyl}-2,3,4,4a,5,6,7,11b-octahydro-1H-pyrido[3′,2′:6,7]cyclohepta[1,2-b]pyridine], the IC50 was less than 0.1 µM.

In the case of `OC1CCN(c2cccc3nc(CN4CCC[C@H]5CCc6cccnc6[C@H]54)cn23)CC1` [Example 69, 1-{2-[(4aR,10bS)-3,4,4a,5,6,10b-hexahydro-1,10-phenanthrolin-1(2H)-ylmethyl]imidazo[1,2-a]pyridin-5-yl}-4-piperidinol], the IC50 was in the range of 0.1 to 0.5 µM.

For the compound `CN(C)C1CCN(c2cccc3nc(CN4CCC[C@H]5CCc6cccnc6[C@H]54)cn23)C1` (stereo partly drawn) [Example 83, 1-{2-[(4aR,10bS)-3,4,4a,5,6,10b-hexahydro-1,10-phenanthrolin-1(2H)-ylmethyl]imidazo[1,2-a]pyridin-5-yl}-N,N-dimethyl-3-pyrrolidinamine], the IC50 is less than 0.1 µM.

`c1cnc2c(c1)CC[C@@H]1CCCN(Cc3nc4ccccc4n3C[C@H]3CCCNC3)[C@H]21` [Example 64, (4aR,10bS)-1-({1-[(3S)-3-piperidinylmethyl]-1H-benzimidazol-2-yl}methyl)-1,2,3,4,4a,5,6,10b-octahydro-1,10-phenanthroline]: the IC50 was less than 0.1 µM.

For the compound `c1cnc2c(c1)CC[C@@H]1CCCN(Cc3cn4c(NC5CCNC5)cccc4n3)[C@H]21` (stereo partly drawn) [Example 109, 2-[(4aR,10bS)-3,4,4a,5,6,10b-hexahydro-1,10-phenanthrolin-1(2H)-ylmethyl]-N-3-pyrrolidinylimidazo[1,2-a]pyridin-5-amine], the IC50 lay in the range of 0.1 to 0.5 µM.

In the case of `CN(C)CCCn1cncc1CN1CCC[C@H]2CCc3cccnc3[C@H]21` [Example 51b, (3-{5-[(4aR,10bS)-3,4,4a,5,6,10b-hexahydro-1,10-phenanthrolin-1(2H)-ylmethyl]-1H-imidazol-1-yl}propyl)dimethylamine], the IC50 was 0.5 to 10 µM.

On to `CN1CCN(c2cccc3nc(CN4CCC[C@H]5CCc6cccnc6[C@H]54)n(C)c23)CC1` [Example 134, (4aR,10bS)-1-{[1-methyl-7-(4-methyl-1-piperazinyl)-1H-benzimidazol-2-yl]methyl}-1,2,3,4,4a,5,6,10b-octahydro-1,10-phenanthroline], for which the IC50 is less than 0.1 µM.

As to `O=C(CN1CCN(c2cccc3nc(CN4CCC[C@H]5CCc6cccnc6[C@H]54)cn23)CC1)N1CCCC1` [Example 101, (4aR,10bS)-1-[(5-{4-[2-oxo-2-(1-pyrrolidinyl)ethyl]-1-piperazinyl}imidazo[1,2-a]pyridin-2-yl)methyl]-1,2,3,4,4a,5,6,10b-octahydro-1,10-phenanthroline], the IC50 was less than 0.1 µM.

Take `CC(C)N1CCN(c2cccc3nc(CN4CCC[C@H]5CCc6cccnc6[C@H]54)cn23)CC1` [Example 82, (4aR,10bS)-1-({5-[4-(1-methylethyl)-1-piperazinyl]imidazo[1,2-a]pyridin-2-yl}methyl)-1,2,3,4,4a,5,6,10b-octahydro-1,10-phenanthroline]: the IC50 was less than 0.1 µM.

For the compound `c1cnc2c(c1)CC[C@@H]1CCCN(Cc3cn4c(N5CCC(C6CCN(c7cccc8nc(CC9CCC[C@H]%10CCc%11cccnc%11[C@@H]9%10)cn78)CC6)CC5)cccc4n3)[C@H]21` (stereo partly drawn) [Example 76b, (4aR,10bS)-1-{[5-(1′-{2-[(6aS,10aR)-5,6,6a,7,8,9,10,10a-octahydrobenzo[h]quinolin-10-ylmethyl]imidazo[1,2-a]pyridin-5-yl}-4,4′-bipiperidin-1-yl)imidazo[1,2-a]pyridin-2-yl]methyl}-1,2,3,4,4a,5,6,10b-octahydro-1,10-phenanthroline], the IC50 was 0.5 to 10 µM.

As to `CN(C)C1CCN(c2cccc3nc(CN4CCC[C@H]5CCc6cccnc6[C@H]54)cn23)CC1` [Example 67, 1-{2-[(4aR,10bS)-3,4,4a,5,6,10b-hexahydro-1,10-phenanthrolin-1(2H)-ylmethyl]imidazo[1,2-a]pyridin-5-yl}-N,N-dimethyl-4-piperidinamine], the IC50 was less than 0.1 µM.

With `c1ccc(Cn2ccnc2Cn2c(CN3CCC[C@@H]4CCc5cccnc5[C@H]43)nc3ccccc32)cc1` (relative stereo) [Example 46, (trans) 1-[(1-{[1-(phenylmethyl)-1H-imidazol-2-yl]methyl}-1H-benzimidazol-2-yl)methyl]-1,2,3,4,4a,5,6,10b-octahydro-1,10-phenanthroline], the IC50 lay within 0.5 to 10 µM.

Turning to `CN1CCC[C@H](Cn2c(CN3CCC[C@H]4CCc5cccnc5[C@H]43)nc3ccccc32)C1` [Example 66, (4aR,10bS)-1-[(1-{[(3S)-1-methyl-3-piperidinyl]methyl}-1H-benzimidazol-2-yl)methyl]-1,2,3,4,4a,5,6,10b-octahydro-1,10-phenanthroline], the IC50 was less than 0.1 µM.

As to `CN1CCCN(c2cccc3nc(CN4CCC[C@H]5CCc6cccnc6[C@H]54)cn23)CC1` [Example 93, (4aR,10bS)-1-{[5-(4-methylhexahydro-1H-1,4-diazepin-1-yl)imidazo[1,2-a]pyridin-2-yl]methyl}-1,2,3,4,4a,5,6,10b-octahydro-1,10-phenanthroline], the IC50 is less than 0.1 µM.

For `CN1CCC(N(C)c2cccc3nc(CN4CCC[C@H]5CCc6cccnc6[C@H]54)cn23)CC1` [Example 74, 2-[(4aR,10bS)-3,4,4a,5,6,10b-hexahydro-1,10-phenanthrolin-1(2H)-ylmethyl]-N-methyl-N-(1-methyl-4-piperidinyl)imidazo[1,2-a]pyridin-5-amine], the IC50 is less than 0.1 µM.

As to `c1ccc(N2CCN(c3cccc4nc(CN5CCC[C@H]6CCc7cccnc7[C@H]65)cn34)CC2)nc1` [Example 80, (4aR,10bS)-1-({5-[4-(2-pyridinyl)-1-piperazinyl]imidazo[1,2-a]pyridin-2-yl}methyl)-1,2,3,4,4a,5,6,10b-octahydro-1,10-phenanthroline], the IC50 was in the range of 0.1 to 0.5 µM.

`OCCN1CCCN(c2cccc3nc(CN4CCC[C@H]5CCc6cccnc6[C@H]54)cn23)CC1` [Example 108, 2-(4-{2-[(4aR,10bS)-3,4,4a,5,6,10b-hexahydro-1,10-phenanthrolin-1(2H)-ylmethyl]imidazo[1,2-a]pyridin-5-yl}hexahydro-1H-1,4-diazepin-1-yl)ethanol]: the IC50 is less than 0.1 µM.

Turning to `CN1CCN(c2cccc3nc(CN4CCC[C@H]5CCc6cccnc6[C@H]54)[nH]c23)CC1` [Example 48, (4aR,10bS)-1-{[4-(4-methyl-1-piperazinyl)-1H-benzimidazol-2-yl]methyl}-1,2,3,4,4a,5,6,10b-octahydro-1,10-phenanthroline], the IC50 is less than 0.1 µM.

In the case of `CN(C)[C@@H]1CCN(c2cccc3nc(CN4CCC[C@H]5CCc6cccnc6[C@H]54)cn23)C1` [Example 105, (3R)-1-{2-[(4aR,10bS)-3,4,4a,5,6,10b-hexahydro-1,10-phenanthrolin-1(2H)-ylmethyl]imidazo[1,2-a]pyridin-5-yl}-N,N-dimethyl-3-pyrrolidinamine], the IC50 was less than 0.1 µM.

As to `OCCN1CCN(c2cccc3nc(CN4CCC[C@H]5CCc6cccnc6[C@H]54)cn23)CC1` [Example 103, 2-(4-{2-[(4aR,10bS)-3,4,4a,5,6,10b-hexahydro-1,10-phenanthrolin-1(2H)-ylmethyl]imidazo[1,2-a]pyridin-5-yl}-1-piperazinyl)ethanol], the IC50 was less than 0.1 µM.

For `C[C@H]1CCCN1c1cccc2nc(CN3CCC[C@H]4CCc5cccnc5[C@H]43)cn12` [Example 111, (4aR,10bS)-1-({5-[(2S)-2-methyl-1-pyrrolidinyl]imidazo[1,2-a]pyridin-2-yl}methyl)-1,2,3,4,4a,5,6,10b-octahydro-1,10-phenanthroline], the IC50 lay in the range of 0.1 to 0.5 µM.

Take `CN1CCN(c2cccc3nc(CN4CCC[C@H]5CCc6cccnc6[C@H]54)c(CN4CCOCC4)n23)CC1` [Example 59, (4aR,10bS)-1-{[5-(4-methyl-1-piperazinyl)-3-(4-morpholinylmethyl)imidazo[1,2-a]pyridin-2-yl]methyl}-1,2,3,4,4a,5,6,10b-octahydro-1,10-phenanthroline]: the IC50 was less than 0.1 µM.

As for `NCC1CCN(c2cccc3nc(CN4CCC[C@H]5CCc6cccnc6[C@H]54)cn23)CC1` [Example 85, [(1-{2-[(4aR,10bS)-3,4,4a,5,6,10b-hexahydro-1,10-phenanthrolin-1(2H)-ylmethyl]imidazo[1,2-a]pyridin-5-yl}-4-piperidinyl)methyl]amine], the IC50 is less than 0.1 µM.

For `c1cnc2c(c1)CC[C@@H]1CCCN(Cc3cn4c(N5CCCNCC5)cccc4n3)[C@H]21` [Example 87, (4aR,10bS)-1-{[5-(hexahydro-1H-1,4-diazepin-1-yl)imidazo[1,2-a]pyridin-2-yl]methyl}-1,2,3,4,4a,5,6,10b-octahydro-1,10-phenanthroline], the IC50 is less than 0.1 µM.

With `CN1CCC(Nc2cccc3nc(CN4CCC[C@H]5CCc6cccnc6[C@H]54)cn23)CC1` [Example 68, 2-[(4aR,10bS)-3,4,4a,5,6,10b-hexahydro-1,10-phenanthrolin-1(2H)-ylmethyl]-N-(1-methyl-4-piperidinyl)imidazo[1,2-a]pyridin-5-amine], the IC50 is less than 0.1 µM.

With `CN1CCCC1CCNc1cccc2nc(CN3CCC[C@H]4CCc5cccnc5[C@H]43)cn12` (stereo partly drawn) [Example 104, 2-[(4aR,10bS)-3,4,4a,5,6,10b-hexahydro-1,10-phenanthrolin-1(2H)-ylmethyl]-N-[2-(1-methyl-2-pyrrolidinyl)ethyl]imidazo[1,2-a]pyridin-5-amine], the IC50 is less than 0.1 µM.

In the case of `CNCCCN(C)c1cccc2nc(CN3CCC[C@H]4CCc5cccnc5[C@H]43)cn12` [Example 81, N-{2-[(4aR,10bS)-3,4,4a,5,6,10b-hexahydro-1,10-phenanthrolin-1(2H)-ylmethyl]imidazo[1,2-a]pyridin-5-yl}-N,N′-dimethyl-1,3-propanediamine], the IC50 was less than 0.1 µM.
